pKd: −log10 of the molar value.

The assay deals with STAT3 (Homo sapiens, UniProt P40763). The assay can be described thus: microscale thermophoresis (MST), recombinant human STAT3. The format is binding.
Sequence of STAT3 (P40763 2-770): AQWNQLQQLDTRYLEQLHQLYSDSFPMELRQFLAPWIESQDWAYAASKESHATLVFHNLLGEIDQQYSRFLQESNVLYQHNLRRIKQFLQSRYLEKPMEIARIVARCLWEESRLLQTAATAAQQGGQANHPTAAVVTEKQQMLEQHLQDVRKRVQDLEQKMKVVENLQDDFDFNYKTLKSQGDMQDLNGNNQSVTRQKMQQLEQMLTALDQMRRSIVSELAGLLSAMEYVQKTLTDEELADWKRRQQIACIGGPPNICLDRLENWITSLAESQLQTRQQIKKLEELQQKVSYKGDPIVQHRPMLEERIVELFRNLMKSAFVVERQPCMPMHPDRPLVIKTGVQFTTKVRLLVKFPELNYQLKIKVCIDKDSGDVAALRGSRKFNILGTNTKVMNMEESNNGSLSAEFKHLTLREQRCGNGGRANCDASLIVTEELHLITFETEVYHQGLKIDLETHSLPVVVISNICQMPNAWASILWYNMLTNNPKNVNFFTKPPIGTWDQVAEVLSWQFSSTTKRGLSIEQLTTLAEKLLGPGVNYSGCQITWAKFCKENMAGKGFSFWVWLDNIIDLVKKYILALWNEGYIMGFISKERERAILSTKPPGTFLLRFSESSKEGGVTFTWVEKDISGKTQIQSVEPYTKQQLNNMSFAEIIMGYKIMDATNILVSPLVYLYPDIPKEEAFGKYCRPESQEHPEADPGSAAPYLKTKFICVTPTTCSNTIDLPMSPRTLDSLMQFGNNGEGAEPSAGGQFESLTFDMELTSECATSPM

The term pKd denotes the negative decadic logarithm of the Kd, by convention in mol/L. In the case of `CC(=O)O[C@@H]1C[C@H](O)[C@@]23CO[C@@H](O)[C@]1(C)[C@@H]2C[C@@H](O)[C@]1(C)[C@@H]3C(=O)[C@H](OC(C)=O)[C@@]2(C)[C@H](c3ccoc3)C[C@H]3O[C@]321` [TSN, toosendanin], the pKd was 6.53.

(Values after publication PMC9746828, “Small-molecule PROTAC mediates targeted protein degradation to treat STAT3-dependent epithelial cancer” (JCI Insight, 2022).)
